The record followed here is ChEMBL document CHEMBL1124969, “GABA agonists and uptake inhibitors. Synthesis, absolute stereochemistry, and enantioselectivity of (R)-(-)- and (S)-(+)-homo-beta-proline” (J Med Chem, 1990).

Experiment [1] concerns the target GABA-A receptor; anion channel. Nature of the experiment: In vitro binding affinity against Gamma-aminobutyric acid A receptor in rat brain synaptic membranes at pH 7.1. It is filed as cell membranes.
The target of a further experiment is GABA B receptor (Rattus norvegicus, UniProt O88871+Q9Z0U4). Description: In vitro binding affinity against Gamma-aminobutyric acid type B receptor in rat brain synaptic membranes at pH 7.4. It is filed as cell membranes.
GABA B receptor, sequence (Q9Z0U4 whole entry): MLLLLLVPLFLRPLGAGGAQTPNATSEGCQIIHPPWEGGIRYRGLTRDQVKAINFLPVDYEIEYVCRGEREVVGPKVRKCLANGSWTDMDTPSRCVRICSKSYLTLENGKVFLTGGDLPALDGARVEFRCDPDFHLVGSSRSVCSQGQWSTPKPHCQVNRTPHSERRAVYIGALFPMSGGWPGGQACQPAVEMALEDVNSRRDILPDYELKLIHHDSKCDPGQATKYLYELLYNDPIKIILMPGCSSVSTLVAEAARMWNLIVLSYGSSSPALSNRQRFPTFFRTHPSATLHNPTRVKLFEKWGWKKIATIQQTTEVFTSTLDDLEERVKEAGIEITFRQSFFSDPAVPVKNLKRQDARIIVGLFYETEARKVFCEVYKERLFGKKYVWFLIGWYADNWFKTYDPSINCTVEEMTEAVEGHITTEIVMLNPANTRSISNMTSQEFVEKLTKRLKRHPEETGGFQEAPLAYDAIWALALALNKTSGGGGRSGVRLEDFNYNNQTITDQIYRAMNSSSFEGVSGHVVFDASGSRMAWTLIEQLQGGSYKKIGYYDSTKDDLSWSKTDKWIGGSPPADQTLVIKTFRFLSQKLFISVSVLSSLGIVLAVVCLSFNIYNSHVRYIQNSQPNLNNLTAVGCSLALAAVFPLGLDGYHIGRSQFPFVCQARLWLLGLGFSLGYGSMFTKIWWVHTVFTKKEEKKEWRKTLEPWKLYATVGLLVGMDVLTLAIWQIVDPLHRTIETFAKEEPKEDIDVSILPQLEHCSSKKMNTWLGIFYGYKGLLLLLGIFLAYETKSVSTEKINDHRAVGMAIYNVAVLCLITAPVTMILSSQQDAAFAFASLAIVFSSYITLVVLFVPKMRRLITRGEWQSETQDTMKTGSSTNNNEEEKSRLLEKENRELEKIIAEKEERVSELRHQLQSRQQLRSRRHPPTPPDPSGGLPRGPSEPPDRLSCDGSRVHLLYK
GABA B receptor, sequence (O88871 whole entry): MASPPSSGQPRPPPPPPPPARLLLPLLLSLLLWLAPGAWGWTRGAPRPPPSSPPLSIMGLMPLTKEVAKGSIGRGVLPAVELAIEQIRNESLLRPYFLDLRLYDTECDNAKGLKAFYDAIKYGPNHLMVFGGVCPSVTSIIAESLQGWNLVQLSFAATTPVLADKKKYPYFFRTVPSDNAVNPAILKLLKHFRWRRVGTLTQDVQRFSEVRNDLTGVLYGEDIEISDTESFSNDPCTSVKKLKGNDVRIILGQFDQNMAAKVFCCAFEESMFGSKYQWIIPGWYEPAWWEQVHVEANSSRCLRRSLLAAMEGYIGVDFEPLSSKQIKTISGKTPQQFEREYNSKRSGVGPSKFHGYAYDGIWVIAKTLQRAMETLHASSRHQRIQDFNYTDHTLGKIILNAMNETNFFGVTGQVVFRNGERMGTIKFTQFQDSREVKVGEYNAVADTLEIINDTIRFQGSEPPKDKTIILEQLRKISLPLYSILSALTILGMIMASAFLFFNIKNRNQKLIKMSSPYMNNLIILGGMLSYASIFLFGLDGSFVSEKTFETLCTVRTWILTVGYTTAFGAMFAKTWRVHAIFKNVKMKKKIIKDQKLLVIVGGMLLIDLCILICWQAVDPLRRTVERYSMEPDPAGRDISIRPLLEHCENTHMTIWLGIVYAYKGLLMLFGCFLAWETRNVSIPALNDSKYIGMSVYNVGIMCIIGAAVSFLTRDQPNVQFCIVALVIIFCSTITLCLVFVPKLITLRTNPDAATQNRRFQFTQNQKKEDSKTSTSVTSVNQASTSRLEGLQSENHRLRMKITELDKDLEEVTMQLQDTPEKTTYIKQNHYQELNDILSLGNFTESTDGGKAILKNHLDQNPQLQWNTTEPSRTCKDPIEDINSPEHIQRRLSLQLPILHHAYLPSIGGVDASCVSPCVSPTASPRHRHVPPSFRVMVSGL

`O=C(O)C[C@H]1CCNC1`: the IC50 (commonly the concentration that gives 50% inhibition) in experiment [1] is 70 nM; on GABA B receptor, > 100000 nM.

For `O=C(O)C[C@@H]1CCNC1`, the IC50 in experiment [1] is 900 nM; on GABA B receptor, 7800 nM.

In the case of `O=C(O)CC1CCNC1` (racemic), the IC50 in experiment [1] was determined as 200 nM; at GABA B receptor, 14100 nM.
